Data from patent US20250179481A1, “COMPOSITIONS AND METHODS FOR TARGETING, EDITING, OR MODIFYING GENES” (Celyntra Therapeutics SA, priority 2021, published 2025).

test system: human genes; assay: Editing efficiency of tested crRNAs / guide nucleic acids (Tables 7-10) detected in human cells; type: cell-based; conditions: Target Gene LAG3; tested crRNAs targeting human genes

Substance | % Indel [%]
gLAG3_6: spacer targeting LAG3, SEQ ID NO 153, GGGTGCATACCTGTCTGGCTG (chemistry not given here) | 52.4

same assay, conditions: Target Gene PD; tested crRNAs targeting human genes

Substance | % Indel [%]
gPD_23: spacer targeting PDCD1, SEQ ID NO 210, TCTGCAGGGACAATAGGAGCC (chemistry not given here) | 57.6

same assay, conditions: Target Gene PTPN6; tested crRNAs targeting human genes

Substance | % Indel [%]
gPTPN6_6: spacer targeting PTPN6, SEQ ID NO 249, TATGACCTGTATGGAGGGGAG (chemistry not given here) | 83.4
gPTPN6_8 (guide AGGTGGATGATGGTGCCGTCG; chemistry not given here) | 3.5
gPTPN6_9 (guide CCTGACGCTGCCTTCTCTAGG; chemistry not given here) | 0.8

same assay, conditions: Target Gene TIGIT; tested crRNAs targeting human genes

Substance | % Indel [%]
gTIGIT_31 (guide AATGTCCTGAGTTACAGAAGC; chemistry not given here) | 0.5
gTIGIT_14 (guide TGCATCTATCACACCTACCCT; chemistry not given here) | 1.4
gTIGIT_3 (guide GTCCTCTTCCCTAGGAATGAT; chemistry not given here) | 1.3
gTIGIT_7 (guide TGCAGAGAAAGGTGGCTCTAT; chemistry not given here) | 6
gTIGIT_16 (guide CTAGGACCTCCAGGAAGATTC; chemistry not given here) | 0.5
gTIGIT_12 (guide AAGGATGGGGAGATGTGCCAC; chemistry not given here) | 0.4
gTIGIT_1 (guide CCTGAGGCGAGGGGAGCCTGC; chemistry not given here) | 0.2
gTIGIT_15 (guide TAGGACCTCCAGGAAGATTCT; chemistry not given here) | 0.4
gTIGIT_30 (guide TGTAACTCAGGACATTGAAGT; chemistry not given here) | 0.5
gTIGIT_21 (guide CTAGTCAACGCGACCACCACG; chemistry not given here) | 0.1
gTIGIT_10 (guide TAATGCTGACTTGGGGTGGCA; chemistry not given here) | 1.6
gTIGIT_9 (guide TGGCCATTTGTAATGCTGACT; chemistry not given here) | 0.8
gTIGIT_23 (guide TTTGTTTTTAGAAGAAAGCCC; chemistry not given here) | 1
gTIGIT_2: spacer targeting TIGIT, SEQ ID NO 302, AGGCCTTACCTGAGGCGAGGG (chemistry not given here) | 81.7
gTIGIT_22 (guide TAGTTTGTTTGTTTTTAGAAG; chemistry not given here) | 0.6
gTIGIT_29 (guide TGCCTGGACACAGCTTCCTGG; chemistry not given here) | 0.3
gTIGIT_4 (guide TATTGTGCCTGTCATCATTCC; chemistry not given here) | 1
gTIGIT_18 (guide GTCCTCCCTCTAGTGGCTGAG; chemistry not given here) | 72.4
gTIGIT_6 (guide CTCTGCAGAAATGTTCCCCGT; chemistry not given here) | 0.1
gTIGIT_5 (guide TCTGCAGAAATGTTCCCCGTT; chemistry not given here) | 1.1
gTIGIT_19 (guide GAGCCATGGCCGCGACGCTGG; chemistry not given here) | 0.9
gTIGIT_20 (guide TAGTCAACGCGACCACCACGA; chemistry not given here) | 0.1
gTIGIT_28 (guide CTGGGGGTGAGGGAGCACTGG; chemistry not given here) | 0.5
gTIGIT_13 (guide AAGGATCGAGTGGCCCCAGGT; chemistry not given here) | 0.2
gTIGIT_8 (guide TGCCGTGGTGGAGGAGAGGTG; chemistry not given here) | 0.3
gTIGIT_11 (guide GGGTGGCACATCTCCCCATCC; chemistry not given here) | 9.7
gTIGIT_26 (guide CACAGAATGGATTCTGAGGGC; chemistry not given here) | 0.3
gTIGIT_24 (guide TTTTTAGAAGAAAGCCCTCAG; chemistry not given here) | 0.4
gTIGIT_17 (guide CTCCAGCAGGAATACCTGAGC; chemistry not given here) | 0.8

same assay, conditions: Target Gene TRAC; tested crRNAs targeting human genes

Substance | % Indel [%]
gTRAC089 (guide AACTCAGGGTTGAGAAAACAG; chemistry not given here) | 0.7
gTRAC090 (guide ACTCAGGGTTGAGAAAACAGC; chemistry not given here) | 0.1

same assay, conditions: crRNA targeting TRBC1 + 2; value at TRBC1

Substance | % Indel (TRBC1) [%]
gTRBC1 + 2_1 (guide AGCCATCAGAAGCAGAGATCT; chemistry not given here) | 66.40

same assay, conditions: crRNA targeting TRBC1 + 2; value at TRBC2

Substance | % Indel (TRBC2) [%]
gTRBC1 + 2_1 (guide AGCCATCAGAAGCAGAGATCT; chemistry not given here) | 74.7

same assay, conditions: tested crRNAs targeting human genes; target gene as given (Table 10)

Substance | % Indel [%]
gU6_3 (guide TTGGCTTTATATATCTTGTGG; chemistry not given here) | 2.83
gTRBC2_18 (guide CCTAGCAAGATCTCATAGAGG; chemistry not given here) | 0.37
gTUBB_2 (guide ACCATGAGGGAAATCGTGCAC; chemistry not given here) | 68.4
gTRBC2_12: spacer targeting TRBC2, SEQ ID NO 1379, CCGGAGGTGAAGCCACAGTCT (chemistry not given here) | 33.14
gTRAC086 (guide CTCAACCCTGAGTTAAAACAC; chemistry not given here) | 0.2
gCARD11_1: spacer targeting CARD11, SEQ ID NO 1388, TAGTACCGCTCCTGGAAGGTT (chemistry not given here) | 1.37
gTUBB_1 (guide AACCATGAGGGAAATCGTGCA; chemistry not given here) | 2.61
gTRBC2_17 (guide CCATGGCCATCAGCACGAGGG; chemistry not given here) | 1.75
gU6_6 (guide TATATCTTGTGGAAAGGACGA; chemistry not given here) | 0.39
gU6_5 (guide ATATATCTTGTGGAAAGGACG; chemistry not given here) | 0.39
gCD247_12: spacer targeting CD247, SEQ ID NO 89, CTAGCAGAGAAGGAAGAACCC (chemistry not given here) | 70.64
gTRBC2_13 (guide TCAACAGAGTCTTACCAGCAA; chemistry not given here) | 1.2
gDHODH_2 (guide TTGCAGAAGCGGGCCCAGGAT; chemistry not given here) | 0.59
gTRBC2_10 (guide CAGACTGTGGCTTCACCTCCG; chemistry not given here) | 0.16
gDHODH_1 (guide TTGCAGAAGCGGGCCCAGGAT; chemistry not given here) | 0.6
gTRAC006: spacer targeting TRAC, SEQ ID NO 988, TGAGGGTGAAGGATAGACGCT (chemistry not given here) | 81.8
gLCK1_3: spacer targeting LCK, SEQ ID NO 1401, ACCCATCAACCCGTAGGGATG (chemistry not given here) | 16.21
gTRAC085 (guide TCAACCCTGAGTTAAAACACA; chemistry not given here) | 0.5
gTRBC2_15 (guide CTAGGGAAGGCCACCTTGTAT; chemistry not given here) | 21.74

Substance | % Indel [%]
gTRAC088 (guide GTCCTGAAGGTAGCTGTTTTC; chemistry not given here) | 0.1
gTRAC084 (guide GACTTTTCCCAGCTGACAGAT; chemistry not given here) | 1.6
gTRAC087 (guide TCCTGAAGGTAGCTGTTTTCT; chemistry not given here) | 0.2
gTRBC2_9 (guide TTTCAGACTGTGGCTTCACCT; chemistry not given here) | 0.24
gPLCG1_2: spacer targeting PLCG1, SEQ ID NO 1403, CCTTTCTGCGCTTCGTGGTGT (chemistry not given here) | 5.14
gIL7R_3: spacer targeting IL7R, SEQ ID NO 1393, CAGGGGAGATGGATCCTATCT (chemistry not given here) | 87.87
gTRBC2_11 (guide AGACTGTGGCTTCACCTCCGG; chemistry not given here) | 19.97
gTRBC2_14 (guide CCAGCAAGGGGTCCTGTCTGC; chemistry not given here) | 6.69
gTRBC2_7 (guide CCCTGTTTTCTTTCAGACTGT; chemistry not given here) | 0.09
gU6_7 (guide TGGAAAGGACGAAACACCGTG; chemistry not given here) | 0.24
gTUBB_3 (guide TTCTCTGTAGGTGGCAAATAT; chemistry not given here) | 18.67
gDHODH_3 (guide TATGCTGAACACCTGATGCCG; chemistry not given here) | 74.94
gTRBC2_19 (guide CACAGGTCAAGAGAAAGGATT; chemistry not given here) | 1.58
gU6_4 (guide GCTTTATATATCTTGTGGAAA; chemistry not given here) | 0.37
gU6_1 (guide GTCCTTTCCACAAGATATATA; chemistry not given here) | 68.1
gTRBC2_16 (guide TATGCCGTGCTGGTCAGTGCC; chemistry not given here) | 0.2
gTRBC2_8 (guide CTTTCAGACTGTGGCTTCACC; chemistry not given here) | 0.24
gU6_2 (guide GATTTCTTGGCTTTATATATC; chemistry not given here) | 0.71
gTRBC2_21 (guide GAGCTAGCCTCTGGAATCCTT; chemistry not given here) | 11.89
